Experimental data published in patent US20220111378A1, “METHODS AND SYSTEMS FOR DETERMINING TARGET SENSITIVITY TO A THERAPEUTIC FORMULA” (priority 2019, published 2022).

Experiments:
[1] = system: Enterococcus faecalis EfR100; experiment: Growth curves at breakpoint concentrations compared with culture results (optical AST); type: cell-based; details: clinical isolate EfR100, confirmed by growth curves within approximately 33 minutes
Protocol: (§1) To prepare a spiked bacterial sample, 1 mL of an overnight culture was diluted into 25 mL of warm cation-adjusted Mueller Hinton broth, allowed to grow to log phase at 37 C in a shaking incubator, and counted using a hemocytometer. The bacteria were then diluted in additional warm broth to a final concentration of 1E5 to 8E5 CFU/mL. A 2-mL aliquot of the bacterial solution was added to a disposable 1-cm cuvette containing a pre-dispensed volume of water, diluent and antibiotic according to the experiment at hand. The fluids were mixed by pipetting. A no-antibiotic control was used in each experiment, which contained only the appropriate volume of water and diluent. A set of three cuvettes, such as in 41 or 43a, 43b or 43c, containing identical mixtures were assembled side-to-side into a three-centimeter light path and inserted into the prototype sensitivity module shown in FIGS. 2A and 2B. A total of four sets of cuvettes could be examined in the prototype at one time. The prototype maintains the cultures at 37 C with gentle agitation to mitigate the effects of bacterial settling. Optical transmissions through each set of cuvettes were taken every 5 seconds for the no-antibiotic control and the experimental cuvettes. The bacteria were allowed to grow from 10 minutes to two hours depending on the antibiotics and/or bacteria being tested. The final curves were analyzed to determine whether the bacteria were sensitive or resistant to each drug or drug combination.
(§2) In the proof-of-concept device used to generate the data provided in this example, a 3-cm light path and lasers at 405 nm and 532 nm were used. Antimicrobial resistance profiles of 17 clinical isolates of 11 uropathogens were followed from 20 minutes to three hours, against 8 antibiotics, both lytic and static.

[2] = system: Pseudomonas aeruginosa PaH201; experiment: as above; type: cell-based; details: clinical isolate PaH201, confirmed for ampicillin and ciprofloxacin within approximately 42 minutes
Protocol: as §1, §2

[3] = system: Escherichia coli EcUAH202; experiment: as above; type: cell-based; details: clinical isolate EcUAH202, confirmed for ampicillin and levofloxacin within approximately 7 minutes
Protocol: as §1, §2

[4] = system: Staphylococcus aureus SaR100; experiment: as above; type: cell-based; details: clinical isolate SaR100, confirmed by growth curves within approximately 42 minutes
Protocol: as §1, §2

[5] = system: K. pneumoniae KpH201; details: clinical isolate KpH201; breakpoint concentrations; confirmed by growth curves vs no-antibiotic control within approximately 20 minutes
Protocol: as §1, with “The bacteria were allowed to grow from 10 minutes to two hours depending on the antibiotics and/or bacteria being tested.” left out, “combination. […]” for “combination.”

[6] = system: sterile urine sample spiked with clinical isolate EcUAH202; details: EcUAH202 spiked into sterile urine; breakpoint concentrations; confirmed for ampicillin within approximately 5 minutes
Protocol: as §1, with “The bacteria were then diluted in additional warm broth to a final concentration of 1E5 to 8E5 CFU/mL.” left out, “combination. […]” for “combination.”

[7] = system: Candida tropicalis CanTCDC345; experiment: Growth curves at breakpoint concentrations compared with culture results (optical AST); type: cell-based; details: clinical isolate CanTCDC345, confirmed for caspofungin within approximately 12 minutes
Protocol: as §1, §2

Compound	Culture results: sensitivity or resistance of the strain [1]	Culture results: sensitivity or resistance of the strain [2]	Culture results: sensitivity or resistance of the strain [3]	Culture results: sensitivity or resistance of the strain [4]	Culture results: sensitivity or resistance of the strain [5]	Culture results: sensitivity or resistance of the strain [6]	Culture results: sensitivity or resistance of the strain [7]
CC1(C)S[C@@H]2[C@H](NC(=O)[C@H](N)c3ccccc3)C(=O)N2[C@H]1C(=O)O [ampicillin]	sensitivity	resistance	resistance	sensitivity	sensitivity	resistance	
CC[C@H](C)C[C@H](C)CCCCCCCCC(=O)N[C@H]1C[C@@H](O)[C@@H](NCCN)NC(=O)[C@@H]2[C@@H](O)CCN2C(=O)[C@H]([C@H](O)CCN)NC(=O)[C@H]([C@H](O)[C@@H](O)c2ccc(O)cc2)NC(=O)[C@@H]2C[C@@H](O)CN2C(=O)[C@H]([C@@H](C)O)NC1=O [caspofungin]							sensitivity
